The results in this text go back to ChEMBL document CHEMBL6092154, “Design, synthesis, and evaluation of a novel TRAIL-activated HDAC6 inhibitor for the treatment of pulmonary fibrosis” (Bioorg Med Chem, 2024).

Data set [1] concerns the target T1, Protein deacetylase HDAC6 (Homo sapiens) (UniProt Q9UBN7).
T1 sequence (whole entry): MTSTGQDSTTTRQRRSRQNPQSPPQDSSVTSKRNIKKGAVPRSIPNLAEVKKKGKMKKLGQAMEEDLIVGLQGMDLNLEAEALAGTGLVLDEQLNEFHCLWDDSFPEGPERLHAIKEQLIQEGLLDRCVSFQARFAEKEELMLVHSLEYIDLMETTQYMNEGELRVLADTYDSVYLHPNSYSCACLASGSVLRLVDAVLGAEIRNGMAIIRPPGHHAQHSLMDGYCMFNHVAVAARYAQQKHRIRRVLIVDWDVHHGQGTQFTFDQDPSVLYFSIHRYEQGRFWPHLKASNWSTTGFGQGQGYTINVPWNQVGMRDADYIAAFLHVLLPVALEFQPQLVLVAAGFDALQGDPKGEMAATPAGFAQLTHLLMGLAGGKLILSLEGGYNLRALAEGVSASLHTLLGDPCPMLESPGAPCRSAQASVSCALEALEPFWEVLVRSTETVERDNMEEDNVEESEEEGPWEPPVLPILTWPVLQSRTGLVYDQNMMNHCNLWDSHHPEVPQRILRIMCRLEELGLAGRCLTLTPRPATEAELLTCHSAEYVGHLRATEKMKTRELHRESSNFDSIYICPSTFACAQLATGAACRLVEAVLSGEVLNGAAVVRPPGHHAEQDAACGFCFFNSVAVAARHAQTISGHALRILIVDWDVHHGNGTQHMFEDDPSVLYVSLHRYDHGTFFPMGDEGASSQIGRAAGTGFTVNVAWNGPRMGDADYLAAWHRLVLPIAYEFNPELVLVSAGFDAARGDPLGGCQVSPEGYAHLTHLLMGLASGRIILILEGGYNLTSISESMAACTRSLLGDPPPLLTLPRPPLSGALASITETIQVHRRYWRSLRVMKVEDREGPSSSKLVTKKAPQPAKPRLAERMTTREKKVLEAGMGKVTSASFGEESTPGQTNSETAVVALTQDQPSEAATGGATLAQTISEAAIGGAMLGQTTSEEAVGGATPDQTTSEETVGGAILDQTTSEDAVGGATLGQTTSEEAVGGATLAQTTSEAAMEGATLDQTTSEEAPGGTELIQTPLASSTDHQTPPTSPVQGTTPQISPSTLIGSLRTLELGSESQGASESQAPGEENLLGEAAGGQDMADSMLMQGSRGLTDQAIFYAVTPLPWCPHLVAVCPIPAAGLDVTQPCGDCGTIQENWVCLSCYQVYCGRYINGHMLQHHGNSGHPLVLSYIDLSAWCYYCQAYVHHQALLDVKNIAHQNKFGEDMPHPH
Description: Inhibition of HDAC6 (unknown origin) at 1 uM incubated for 30 mins by fluorometric analysis.

Another data set relates to Fibroblast. Description: Antiproliferative activity against human primary fibroblasts assessed as inhibition of cell growth incubated for 24 to 48 hrs by CCK8 assay. Type of data set: functional, cell-based. (Formazan colour is commonly taken as a measure of viable cells.)
Data set [2] addresses T2, Protein deacetylase HDAC6 (Mus musculus) (UniProt Q9Z2V5).
T2 sequence (whole entry): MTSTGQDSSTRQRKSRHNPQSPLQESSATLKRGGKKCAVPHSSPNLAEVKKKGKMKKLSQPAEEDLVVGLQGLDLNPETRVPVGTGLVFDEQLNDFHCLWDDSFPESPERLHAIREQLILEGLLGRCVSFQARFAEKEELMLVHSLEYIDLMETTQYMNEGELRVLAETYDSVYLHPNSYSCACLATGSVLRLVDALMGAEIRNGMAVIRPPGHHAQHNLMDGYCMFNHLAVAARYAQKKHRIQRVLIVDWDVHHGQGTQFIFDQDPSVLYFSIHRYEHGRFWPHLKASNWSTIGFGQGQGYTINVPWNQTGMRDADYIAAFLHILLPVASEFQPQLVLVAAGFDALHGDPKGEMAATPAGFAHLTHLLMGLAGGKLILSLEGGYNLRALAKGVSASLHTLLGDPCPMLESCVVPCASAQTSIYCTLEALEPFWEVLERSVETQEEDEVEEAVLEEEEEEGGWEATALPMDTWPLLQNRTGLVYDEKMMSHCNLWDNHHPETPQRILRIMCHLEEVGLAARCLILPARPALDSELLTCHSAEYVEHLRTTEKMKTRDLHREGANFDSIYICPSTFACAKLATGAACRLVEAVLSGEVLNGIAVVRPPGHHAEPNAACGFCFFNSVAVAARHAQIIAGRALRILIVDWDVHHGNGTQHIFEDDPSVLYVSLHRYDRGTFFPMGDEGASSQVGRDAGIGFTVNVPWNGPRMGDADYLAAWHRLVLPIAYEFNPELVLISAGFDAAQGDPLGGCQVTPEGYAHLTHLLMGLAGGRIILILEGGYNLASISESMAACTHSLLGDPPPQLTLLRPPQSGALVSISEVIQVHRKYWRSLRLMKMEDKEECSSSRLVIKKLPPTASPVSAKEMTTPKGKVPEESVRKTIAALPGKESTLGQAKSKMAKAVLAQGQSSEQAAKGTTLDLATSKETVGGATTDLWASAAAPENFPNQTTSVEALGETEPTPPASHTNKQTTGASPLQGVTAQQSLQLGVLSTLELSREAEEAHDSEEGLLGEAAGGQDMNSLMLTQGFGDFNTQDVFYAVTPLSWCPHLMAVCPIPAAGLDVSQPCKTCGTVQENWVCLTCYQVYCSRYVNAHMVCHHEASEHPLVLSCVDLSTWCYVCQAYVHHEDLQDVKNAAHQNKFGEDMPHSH
The data set can be described thus: In vivo inhibition of HDAC6 in bleomycin-induced idiopathic pulmonary fibrosis C57BL/6J mouse model assessed as increase in acetylated alpha-tubulin level in lung at 25 mg/kg, ig administered via gavage and measured on day 14 by western blot analysis. The class given is functional, organism-based. The note with it: time 14.0 day. (In general: In western blotting, separated proteins are transferred to a membrane and probed.)

A short description of data set [3]: Toxicity against bleomycin-induced pulmonary fibrosis C57BL/6J mouse model assessed as effect on kidney morphological changes at 25 to 50 mg/kg, ig administered daily via gavage and measured on day 14 by Hematoxylin-Eosin staining based analysis. Type of data set: organism-based. The settings on record: in vivo, po, 336 h, dose 25-50 mg/kg, time 14 day.
Data set [4] in a line: Toxicity against silicosis C57BL/6J mouse model assessed as AST index in serum at 50 mg/kg, ig administered daily via gavage and measured on day 28. The note with it: in vivo, po, 672 h, time 28 day. The class given is organism-based.

In general, inhibition refers to the share of the control response that was lost under treatment. A word on the IC50: it is the concentration at which inhibition is half-maximal.

Structures are written as SMILES. The source made the active and inactive calls. The rule behind the calls is not given here.

`O=C(NO)c1ccc(CN2C(=O)C3=C(CCN(Cc4cccc(Cl)c4)C3)N3CCN=C23)cc1` displayed an inhibition in data set [1] of 94.8%. The IC50 in the data set on Fibroblast came to 29.4 µM. Moreover, in data set [2], the inhibition entry is “inactive”. For the same molecule, the Activity result in data set [3] and in data set [4] was “Non-toxic” each time.
